Data as given in ChEMBL document CHEMBL1909046, “DrugMatrix in vitro pharmacology data”.

Key:
[1] = biological target: T1, Alpha-2C adrenergic receptor (Homo sapiens, UniProt P18825); assay: DRUGMATRIX: Adrenergic Alpha-2C radioligand binding (ligand: [3H] MK-912); type: cell membranes, Sf9, Membrane; details: sf9
T1 sequence (P18825 whole entry): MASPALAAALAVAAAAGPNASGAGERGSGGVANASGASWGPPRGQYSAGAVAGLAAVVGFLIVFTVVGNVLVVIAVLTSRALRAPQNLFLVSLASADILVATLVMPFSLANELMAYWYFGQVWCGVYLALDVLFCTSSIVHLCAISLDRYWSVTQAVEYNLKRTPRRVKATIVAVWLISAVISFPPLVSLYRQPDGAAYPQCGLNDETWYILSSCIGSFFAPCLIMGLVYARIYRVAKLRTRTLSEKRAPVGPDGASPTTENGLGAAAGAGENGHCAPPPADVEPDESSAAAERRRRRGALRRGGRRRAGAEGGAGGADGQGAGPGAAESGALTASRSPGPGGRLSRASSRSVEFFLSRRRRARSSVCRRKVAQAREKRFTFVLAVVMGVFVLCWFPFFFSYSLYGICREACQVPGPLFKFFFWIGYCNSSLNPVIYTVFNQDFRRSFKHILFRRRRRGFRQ

[2] = biological target: 5-hydroxytryptamine receptor 4 (Cavia porcellus, UniProt O70528); type: cell membranes, Dunkin-Hartley, Striatum, Membrane; note: in other assays of this panel Not Active means under 50% inhibition at 10 µM
[3] = biological target: C-C chemokine receptor type 2 (Homo sapiens, UniProt P41597); type: cell membranes, Membrane; details: cho-k1; note: in other assays of this panel Not Active means under 50% inhibition at 10 µM
[4] = biological target: T2, Cholecystokinin receptor type A (Homo sapiens, UniProt P32238); type: cell membranes, Membrane; details: 1321-n1; note: in other assays of this panel Not Active means under 50% inhibition at 10 µM
T2 sequence (P32238 whole entry): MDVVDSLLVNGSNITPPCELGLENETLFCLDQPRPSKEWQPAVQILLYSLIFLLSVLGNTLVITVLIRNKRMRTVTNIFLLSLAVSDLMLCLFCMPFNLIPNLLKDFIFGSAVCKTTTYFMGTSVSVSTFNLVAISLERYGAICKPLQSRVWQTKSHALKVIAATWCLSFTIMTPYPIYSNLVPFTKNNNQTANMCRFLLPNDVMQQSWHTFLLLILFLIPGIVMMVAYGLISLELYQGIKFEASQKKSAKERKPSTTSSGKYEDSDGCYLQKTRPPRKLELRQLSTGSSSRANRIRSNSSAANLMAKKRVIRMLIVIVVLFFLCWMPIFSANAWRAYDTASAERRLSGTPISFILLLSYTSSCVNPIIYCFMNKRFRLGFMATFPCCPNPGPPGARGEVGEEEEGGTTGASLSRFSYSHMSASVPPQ

[5] = biological target: Sodium-dependent dopamine transporter (Homo sapiens, UniProt Q01959); assay: DRUGMATRIX: Dopamine Transporter radioligand binding (ligand: [125I] RTI-55); type: cell membranes, CHO-K1, Membrane; details: cho-k1; Not Active = under 50% inhibition at 10 µM
Leukotriene C4 synthase = biological target: T3, Leukotriene C4 synthase (Cavia porcellus, UniProt A6XA80); type: tissue-based, Lung;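 note: enzyme inhibition assay of leukotriene C4 synthase, using LTA4 as the substrate; in other assays of this panel Not Active means under 50% inhibition at 10 µM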
T3 sequence (A6XA80 whole entry): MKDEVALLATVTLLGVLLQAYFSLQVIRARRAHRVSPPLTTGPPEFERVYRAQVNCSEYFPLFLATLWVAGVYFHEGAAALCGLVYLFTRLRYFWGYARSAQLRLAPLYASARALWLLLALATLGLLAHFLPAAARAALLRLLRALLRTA

Chain of C-C chemokine receptor type 2 (P41597 whole entry): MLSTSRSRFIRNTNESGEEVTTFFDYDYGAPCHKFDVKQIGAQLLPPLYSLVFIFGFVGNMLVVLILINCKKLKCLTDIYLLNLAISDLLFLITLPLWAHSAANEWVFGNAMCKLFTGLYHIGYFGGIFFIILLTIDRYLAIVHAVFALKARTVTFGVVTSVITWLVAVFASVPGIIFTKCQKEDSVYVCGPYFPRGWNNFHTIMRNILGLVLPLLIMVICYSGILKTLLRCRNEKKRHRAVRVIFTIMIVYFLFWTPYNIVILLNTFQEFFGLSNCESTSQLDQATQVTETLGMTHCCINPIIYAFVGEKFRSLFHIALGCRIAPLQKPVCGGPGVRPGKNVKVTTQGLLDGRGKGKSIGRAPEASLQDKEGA
Chain of 5-hydroxytryptamine receptor 4 (O70528 whole entry): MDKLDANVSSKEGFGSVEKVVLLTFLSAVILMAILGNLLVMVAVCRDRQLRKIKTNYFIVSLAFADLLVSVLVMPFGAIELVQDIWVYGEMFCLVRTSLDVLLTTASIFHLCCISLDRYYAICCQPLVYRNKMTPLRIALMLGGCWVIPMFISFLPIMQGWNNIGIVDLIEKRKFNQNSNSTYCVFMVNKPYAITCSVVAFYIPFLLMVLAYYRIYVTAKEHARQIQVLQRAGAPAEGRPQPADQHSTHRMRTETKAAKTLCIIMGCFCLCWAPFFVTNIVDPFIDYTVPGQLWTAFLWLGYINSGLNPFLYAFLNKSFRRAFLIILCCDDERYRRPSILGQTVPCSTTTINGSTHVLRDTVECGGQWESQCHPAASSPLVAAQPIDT
Chain of Sodium-dependent dopamine transporter (Q01959 whole entry): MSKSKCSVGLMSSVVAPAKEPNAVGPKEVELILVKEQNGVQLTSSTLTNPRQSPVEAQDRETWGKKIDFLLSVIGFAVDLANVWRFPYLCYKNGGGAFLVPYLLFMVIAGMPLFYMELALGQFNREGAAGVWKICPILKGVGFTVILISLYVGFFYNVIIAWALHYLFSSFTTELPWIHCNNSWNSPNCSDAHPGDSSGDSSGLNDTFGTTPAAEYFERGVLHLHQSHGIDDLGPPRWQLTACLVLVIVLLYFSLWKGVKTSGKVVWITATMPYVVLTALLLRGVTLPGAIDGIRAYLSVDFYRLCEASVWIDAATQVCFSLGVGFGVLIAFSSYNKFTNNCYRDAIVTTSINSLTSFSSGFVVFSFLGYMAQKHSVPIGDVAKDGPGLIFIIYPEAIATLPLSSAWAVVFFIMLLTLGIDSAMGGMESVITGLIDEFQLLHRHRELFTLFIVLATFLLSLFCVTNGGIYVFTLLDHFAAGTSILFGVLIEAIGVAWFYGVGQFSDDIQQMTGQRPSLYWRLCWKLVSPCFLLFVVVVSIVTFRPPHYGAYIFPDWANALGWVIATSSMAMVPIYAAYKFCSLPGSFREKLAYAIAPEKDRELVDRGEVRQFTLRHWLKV

COC(=O)Nc1nc2ccc([S+]([O-])c3ccccc3)cc2[nH]1 (configuration not stated) [OXFENDAZOLE]
Not Active: IC50 [1] | IC50 [2] | IC50 [3] | IC50 [4] | IC50 [5] | IC50 (Leukotriene C4 synthase)

C[n+]1ccc(-c2cc[n+](C)cc2)cc1.[Cl-].[Cl-] [PARAQUAT DICHLORIDE]
Not Active: IC50 [1] | IC50 [2] | IC50 [3] | IC50 [4] | IC50 [5] | IC50 (Leukotriene C4 synthase)

CC(C)NCC(O)COc1cccc2[nH]ccc12 (configuration not stated) [PINDOLOL]
Not Active: IC50 [1] | IC50 [2] | IC50 [3] | IC50 [4] | IC50 [5] | IC50 (Leukotriene C4 synthase)

CCn1cc(C(=O)O)c(=O)c2cnc(N3CCCC3)nc21 [PIROMIDIC ACID]
Not Active: IC50 [1] | IC50 [2] | IC50 [3] | IC50 [4] | IC50 [5] | IC50 (Leukotriene C4 synthase)

C[n+]1ccccc1/C=N/O.[Cl-] [PRALIDOXIME CHLORIDE]
Not Active: IC50 [1] | Ki [2] | IC50 [3] | IC50 [4] | IC50 [5] | IC50 (Leukotriene C4 synthase)

C[C@]12C=CC(=O)C=C1CC[C@@H]1[C@@H]2[C@@H](O)C[C@@]2(C)[C@H]1CC[C@]2(O)C(=O)CO [PREDNISOLONE]
Not Active: IC50 [1] | IC50 [2] | IC50 [3] | IC50 [4] | IC50 [5] | IC50 (Leukotriene C4 synthase)

CC(=O)[C@H]1[C@H](C#N)C[C@H]2[C@@H]3CC=C4C[C@@H](O)CC[C@]4(C)[C@H]3CC[C@@]21C [PREGNENOLONE CARBONITRILE]
Not Active: IC50 [1] | IC50 [2] | IC50 [3] | IC50 [4] | IC50 [5] | IC50 (Leukotriene C4 synthase)

CCCN(CCC)S(=O)(=O)c1ccc(C(=O)O)cc1 [PROBENECID]
Not Active: IC50 [1] | IC50 [2] | IC50 [3] | IC50 [4] | IC50 [5] | IC50 (Leukotriene C4 synthase)

CCCOc1ccc(C(=O)OCCN(CC)CC)cc1N [PROPARACAINE]
Not Active: IC50 [1] | IC50 [2] | IC50 [3] | IC50 [4] | IC50 [5] | IC50 (Leukotriene C4 synthase)

CC(C)c1cccc(C(C)C)c1O [PROPOFOL]
Not Active: IC50 [1] | IC50 [2] | IC50 [3] | IC50 [4] | IC50 [5] | IC50 (Leukotriene C4 synthase)

C[C@@H]1O[C@@H](O[C@@H]2C=C3CC[C@@H]4[C@H](CC[C@]5(C)[C@@H](c6ccc(=O)oc6)CC[C@]45O)[C@@]3(C)CC2)[C@H](O)[C@H](O)[C@H]1O [PROSCILLARIDIN]
Not Active: IC50 [1] | IC50 [2] | IC50 [3] | IC50 [4] | IC50 [5] | IC50 (Leukotriene C4 synthase)

Oc1cccc(O)c1O [PYROGALLOL]
Not Active: IC50 [1] | IC50 [2] | IC50 [3] | IC50 [4] | IC50 [5] | IC50 (Leukotriene C4 synthase)

AURANOFIN
Not Active: IC50 [1] | Ki [1] | IC50 [2] | Ki [2] | IC50 [3] | Ki [3] | IC50 [4] | Ki [4] | IC50 [5] | Ki [5] | IC50 (Leukotriene C4 synthase) | Ki (Leukotriene C4 synthase)

GADOPENTETATE DIMEGLUMINE
Not Active: IC50 [1] | Ki [1] | IC50 [2] | Ki [2] | IC50 [3] | Ki [3] | IC50 [4] | Ki [4] | IC50 [5] | Ki [5] | IC50 (Leukotriene C4 synthase) | Ki (Leukotriene C4 synthase)

GENTAMICIN
Not Active: IC50 [1] | Ki [1] | IC50 [2] | Ki [2] | IC50 [3] | Ki [3] | IC50 [4] | Ki [4] | IC50 [5] | Ki [5] | IC50 (Leukotriene C4 synthase) | Ki (Leukotriene C4 synthase)

GRAMICIDIN
Not Active: IC50 [1] | Ki [1] | IC50 [2] | Ki [2] | IC50 [3] | Ki [3] | IC50 [4] | Ki [4] | IC50 [5] | Ki [5] | IC50 (Leukotriene C4 synthase) | Ki (Leukotriene C4 synthase)

NYSTATIN
Not Active: IC50 [1] | Ki [1] | IC50 [2] | Ki [2] | IC50 [3] | Ki [3] | IC50 [4] | Ki [4] | IC50 [5] | Ki [5] | IC50 (Leukotriene C4 synthase) | Ki (Leukotriene C4 synthase)
